Here are results for 31 molecules from US20020164368A1, “Male contraceptive method and composition” (priority 2000, published 2002).

By % Inhibition is commonly meant the share of the control response that was lost under treatment.

The target in assay [1] is T1, Testicular bovine hyaluronidase (Bos taurus, UniProt Q2YDK3).
T1 construct: Testicular bovine hyaluronidase (Sigma Chemical Company); purchased Sigma Chemical Company; host or cells: bovine testes
T1 sequence (Q2YDK3 36-553): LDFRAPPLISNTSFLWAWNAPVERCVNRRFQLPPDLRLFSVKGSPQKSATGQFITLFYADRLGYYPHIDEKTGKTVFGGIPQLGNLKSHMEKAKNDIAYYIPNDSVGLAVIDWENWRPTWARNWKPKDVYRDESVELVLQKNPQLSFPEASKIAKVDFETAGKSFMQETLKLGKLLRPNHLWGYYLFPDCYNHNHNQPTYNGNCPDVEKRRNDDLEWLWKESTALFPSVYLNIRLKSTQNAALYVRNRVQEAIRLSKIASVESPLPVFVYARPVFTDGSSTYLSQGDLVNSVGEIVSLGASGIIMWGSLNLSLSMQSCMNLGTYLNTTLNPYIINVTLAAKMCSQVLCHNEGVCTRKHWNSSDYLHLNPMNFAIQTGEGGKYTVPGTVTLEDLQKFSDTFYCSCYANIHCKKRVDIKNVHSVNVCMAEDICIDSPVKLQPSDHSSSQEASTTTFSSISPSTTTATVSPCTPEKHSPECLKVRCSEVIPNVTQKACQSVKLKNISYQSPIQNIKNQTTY
As to the kind of experiment: Hyaluronidase inhibition in vitro (chondroitin sulfate agar plate). In kind it is biochemical. How it is done:
The inhibition of hyaluronidase was assessed using chondroitin sulfate as the enzyme substrate according to the following procedure. Agar plates containing chondroitin sulfate (0.1 percent) were prepared by the following method: water solutions of I percent agarose, 2 M sodium chloride (0.1 vol.), 1 M sodium acetate (pH 5.0, 0.1 vol), and sodium azide (0.5 mg/ml, 0.1 vol.) qe mixed and the mixture is brought to the boiling temperature. After cooling to about 65° C., a solution of chondroitin sulfate (10 mgtml, 0.1 vol.) is added. After cooling to about 45° C., the resulting mixture (20 ml) is poured onto a petri dish. The plates are allowed to cool to room temperature. A well 2 mm in diameter is then cut in the agar surface. […] A control using only the buffer solution without added test compound is also run. The plates are then incubated overnight (about 16 hours) at 37° C. The zones of hydrolysis of chondroitin sulfate by hyaluronidase are visualized by flooding the plate with 10 percent cetyl trimethyl ammonium bromide. The area of the zone is logarithmically proportional to the concentration of hyaluronidase. Inhibitor activity is determined by comparing the area of hydrolysis from the test compound to the area of hydrolysis from the control. The results are expressed as percent inhibition calculated as follows: [formula]

In assay [2] the target is T2, Acrosin (purified from boar sperm) (Sus scrofa, UniProt P08001).
T2 construct: Acrosin (200 μl, purified from boar sperm); from tissue; host or cells: boar sperm
T2 sequence (P08001 17-415): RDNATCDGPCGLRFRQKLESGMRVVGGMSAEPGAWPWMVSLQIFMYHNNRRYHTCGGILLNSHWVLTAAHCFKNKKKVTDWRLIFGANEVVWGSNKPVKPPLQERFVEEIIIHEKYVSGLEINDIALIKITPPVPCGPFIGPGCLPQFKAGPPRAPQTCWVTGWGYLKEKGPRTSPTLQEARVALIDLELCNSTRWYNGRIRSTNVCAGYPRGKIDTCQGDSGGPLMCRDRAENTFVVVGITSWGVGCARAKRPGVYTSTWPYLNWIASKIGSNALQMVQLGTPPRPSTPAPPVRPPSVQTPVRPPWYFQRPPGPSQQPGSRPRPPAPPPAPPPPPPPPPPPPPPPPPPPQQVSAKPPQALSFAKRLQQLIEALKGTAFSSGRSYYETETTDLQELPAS
The assay can be described thus: Acrosin inhibition in vitro (BAPNA substrate). As to conditions: for Inhibition (units/mg): Other salts ROSO3M, Conc. of Test Sol. 10 mg/ml. In kind it is biochemical. As for the experimental part:
The inhibition of acrosin is assessed in vitro using benzoyl arginine p-nitroanilide (BAPNA) as the enzyme substrate according to the following procedure. Acrosin (200 μl, purified from boar sperm) and a solution of the test compound (200 μl, 10 mg/ml., or 50 μl, 1 mg/ml) in 0.05 M triethanolamine buffer, pH 7.8, are incubated at room temperature for 5 minutes. A control using the buffer solution without the test compound added is also run. A 200 μl-sample of the incubation mixture is then withdrawn and is added to a cuvettecontaining BAPNA (1 ml) and triethanolamine buffer (2 ml). The mixture is stirred and placed in a Gilford recording spectrophotometer. The increase in optical density at 383 mn is measured. One unit of acrosin activity is defined as the amount of acrosin which will cause an increase in optical density at 383 mn of 0.001/minute. One unit of inhibitory activity is defined as the amount of inhibitor which will cause a reduction in the increase in optical density at 383 nm of 0.001/minute.

In assay [3] the test system is Dutch Belted male rabbits of proven fertility. The assay can be described thus: Antifertility effects in vivo, oral dosing of male rabbits. More on the design: species or system rabbit. As to conditions: administered to male rabbits, procedures of Example 4.
Protocol: The animals (of proven fertility) are then bred and the genital system of the females is examined to determine the number of embryos.
Dutch Belted male rabbits of proven fertility were randomly selected. They were given 10 mg/kg tetradecyl sodium sulfate suspended in Ca++ free Ringer's solution by gavage. Control animals were given Ca++ free Ringer's solution by gavage. The male rabbits were dosed each day for 3 days and they were bred to females 2 hours after dosing and again 8 hours after dosing. The female rabbits were then given 100 IU human chorionic gonadotrophin (HCG) to stimulate ovulation. Twenty four hours after the last dose of tetradecyl sodium sulfate the male rabbits were bred and the females treated as before. After twelve days the female rabbits were sacrificed and examined for embryos.
[4] abbreviates: Other salts ROSO3M, Conc. of Test Sol. 10 (mg/ul).
Where [5] appears, read: Conc. of Test Solution 10 Mg/ml.

`CCCCCCCCCCC(CCC)OS(=O)(=O)[O-].[Na+]` (stereo not shown) [Compound 4-tetradecyl]: the “% Inhibition” value in assay [1] (Conc. of Test Solution 1 Mg/ml) worked out at 0%.

On to `CCCCCCCCCCCCCCCCCCCCCCCCCCCOS(=O)(=O)O` [n-heptacosyl], for which the “% Inhibition” value in assay [1] (Conc. of Test Solution 1 Mg/ml) was 0%.

In the case of `CCCCCCCCCCCCOS(=O)(=O)O.OCCNCCO` [CH3(CH2)11— diethanol-ammonium], in assay [2], the “Inhibition (units/mg)” value was 90,000 units/mg. The “% Inhibition” value in assay [1] (setting [4]) is recorded as 100%.

As for `CCCCCCCCCC(CCCCCC)OS(=O)(=O)O` (stereo not shown) [Compound 7-hexadecyl], in assay [1] (Conc. of Test Solution 1 Mg/ml), the “% Inhibition” value was determined as 0%.

With `CCCCCCCCCCCOS(=O)(=O)O` [n-hendecyl], the “% Inhibition” value in assay [1] (setting [5]) was 100%.

As for `CCCCCCCCCCCCCCCCOS(=O)(=O)O` [n-hexadecyl], in assay [1] (setting [5]), the “% Inhibition” value was determined as 75%.

Consider `CCCCCCCCCCCCCCCCCOS(=O)(=O)O` [n-heptadecyl], for which, in assay [1] (setting [5]), the “% Inhibition” value amounted to 23%.

In the case of `CCCCCCCCCCCCCOS(=O)(=O)O` [n-tridecyl], the “% Inhibition” value in assay [1] (setting [5]) was found to be 80%.

Regarding `CCCCCCCC/C=C\CCCCCCCCOS(=O)(=O)O` [oleyl], the “% Inhibition” value in assay [1] (Conc. of Test Solution 1 Mg/ml) is 0%.

As to “a ethyl a sulfodocosanoate [Compound 31]”, the “activity as male contraceptives” value in assay [3] is “activity as male contraceptives”.

Consider `CCCCCCCCC(CCCCCCC)OS(=O)(=O)O` (stereo not shown) [Compound 8-hexadecyl], for which the “% Inhibition” value in assay [1] (Conc. of Test Solution 1 Mg/ml) is 0%.

Take `CCCCCCCCCCCCCCCCCCCCCCCCOS(=O)(=O)O` [n-tetracosyl]: the “% Inhibition” value in assay [1] (Conc. of Test Solution 1 Mg/ml) is 0%.

Take `CCCCC/C=C\C/C=C\CCCCCCCCOS(=O)(=O)O` [linoleyl]: in assay [1] (Conc. of Test Solution 1 Mg/ml), the “% Inhibition” value stood at 0%.

On to `CCCCCCCCCCCCCCCCCCCCCCOS(=O)(=O)O` [n-docosyl], for which the “% Inhibition” value in assay [1] (Conc. of Test Solution 1 Mg/ml) stood at 0%.

`O=S(=O)([O-])Oc1ccc(OS(=O)(=O)[O-])c2ccccc12.[Na+].[Na+]` [Compound 28]: the “acrosin inhibition activity (in words)” value in assay [2] was “The following compounds have also been found to have acrosin inhibition”.

Turning to `O=S(=O)([O-])Oc1c[nH]c2ccccc12.[Na+]` [Compound 29], the “acrosin inhibition activity (in words)” value in assay [2] is recorded as “The following compounds have also been found to have acrosin inhibition”.

In the case of `CCCC/C=C/CCCCCCCCOS(=O)(=O)[O-].[Na+]` [myristeladyl], in assay [1] (Conc. of Test Solution 1 Mg/ml), the “% Inhibition” value came out at 13%.

For the molecule `CCCCCCCCCCCCCCCCCCCCOS(=O)(=O)O` [n-eicosyl], the “% Inhibition” value in assay [1] (setting [5]) stood at 0%.

Regarding `CCCCCCCCC(CCCCC)OS(=O)(=O)O` (stereo not shown) [Compound 6-tetradecyl], the “% Inhibition” value in assay [1] (Conc. of Test Solution 1 Mg/ml) was determined as 12%.

For the molecule `CCCCCCCCCCC(CCCCCCCC)COS(=O)(=O)O` (stereo not shown) [2-octyldodecyl], the “% Inhibition” value in assay [1] (Conc. of Test Solution 1 Mg/ml) was determined as 0%.

For the molecule `CCCC/C=C\CCCCCCCCOS(=O)(=O)O` [myristoleyl], the “% Inhibition” value in assay [1] (Conc. of Test Solution 1 Mg/ml) is on record as 13%.

Take `CCCCCCCCCCCCC(C)OS(=O)(=O)O` (stereo not shown) [Compound 2-tetradecyl]: the “% Inhibition” value in assay [1] (Conc. of Test Solution 1 Mg/ml) is given as 100%.

As for `CCCCCCCC(CCCCCC)OS(=O)(=O)O` (stereo not shown) [Compound 7-tetradecyl], the “% Inhibition” value in assay [1] (Conc. of Test Solution 1 Mg/ml) is on record as 0%.

With `CCCCCCCCCCCCCCCCCCOS(=O)(=O)O` [n-octadecyl], the “% Inhibition” value in assay [1] (setting [5]) turned out to be 30%.

In the case of `CCCCCCCCCCCCCCCOS(=O)(=O)O` [n-pentadecyl], the “% Inhibition” value in assay [1] (setting [5]) came to 60%.

Consider `CC(C)CCCC(C)CCCC(C)CCOS(=O)(=O)[O-].[Na+]` (stereo not shown) [3,7,11-trimethyldodecyl], for which the “% Inhibition” value in assay [1] (Conc. of Test Solution 1 Mg/ml) came out at 39%.

With `CCCCCCCCCCCCOS(=O)(=O)O.OCCN(CCO)CCO` [CH3(CH2)11— triethanol-ammonium], the “Inhibition (units/mg)” value in assay [2] is recorded as 90,000 units/mg. Also, the “% Inhibition” value in assay [1] (setting [4]) amounted to 100%.

In the case of `CC(C)CCCCCCCCCCCOS(=O)(=O)O` [12-methyltridecyl], the “% Inhibition” value in assay [1] (Conc. of Test Solution 1 Mg/ml) stood at 7%.

In the case of `CC(C)CCCC(C)CCOS(=O)(=O)O` (stereo not shown) [tetrahydrogeranyl], the “% Inhibition” value in assay [1] (Conc. of Test Solution 1 Mg/ml) worked out at 0%.

Take `CCCCCCCCCC(CCCCCCCC)OS(=O)(=O)O` (stereo not shown) [Compound 9-octadecyl]: the “% Inhibition” value in assay [1] (Conc. of Test Solution 1 Mg/ml) is 7%.

Turning to `CCCCCCCCCCCCOS(=O)(=O)[O-].[Na+]` [n-dodecyl], the “Inhibition (units/mg.)” value in assay [2] (setting [5]) was 0 units/mg. Besides, the “% Inhibition” value in assay [1] (setting [5]) was determined as 71%.
